Values quoted from earlier work as cited in patent publication US20110144198A1, “BREAST CANCER PROGNOSTICS” (ATLAS ANTIBODIES AB, priority 2008, published 2011).

Experiments:
ERα+/PR− tumors = details: follow-up period of 6 years
[1] = tested on: ERα positive (ERα+) patients

| SMILES | recurrence rate compared to patients treated with tamoxifen (ERα+/PR− tumors) | fraction of ERα+ patients that do not respond to treatment [1] |
| --- | --- | --- |
| CC(C)(C#N)c1cc(Cn2cncn2)cc(C(C)(C)C#N)c1 [anastrozole] | halved |  |
| CC/C(=C(\c1ccccc1)c1ccc(OCCN(C)C)cc1)c1ccccc1 [tamoxifen] |  | 30-40% |
